Source: patent US4954523A, “Benzophenone oxime ether compounds, pharmaceutical compositions and treatment methods” (Eisai Co., Ltd., priority 1986, dated 1990)
Where two headings read alike, the source gives them in different places.

Assays:
[1] = test system: platelets (aggregation induced by collagen or arachidonic acid); assay: Effect of inhibiting aggultination of platelets (ex vivo), oral administration to guinea pigs; format: in vivo; conditions: Cavia porcellus, Platelet, 2 h
Experimental: 2. Effect of inhibiting aggultination of platelets (ex vivo)
The compound A to E, which were typical examples of the compound of the present invention, were orally administered to guinea pigs. After two hours, the blood of each animal was collected from the abdominal aorta thereof under etherization. Then the effect of each compound on the aggultination of platelets induced by collagen (3 μg/ml) and arachidonic acid (50 μM) was examined. […] In other words, this test is conducted to examine the effect of platelet aggregation (ex vivo).
(§1) The tests were conducted in the same way as shown before from the diphenylethylene derivative. Results for inhibition of aggulutination are shown in Table 3 for the in-vitro test and in Table for the ex-vivo test. The acute toxicity test provided the same results as obtained with the diphenylethylene derivative.

[2] = test system: platelets (aggregation induced with collagen, arachidonic acid, ADP or PAF); assay: Effect in inhibiting aggulutination of platelets (in vitro), human platelet-rich plasma; format: cell-based
Experimental: 1. Effect in inhibiting aggulutination of platelets […]
The blood was collected from a human cubital vein in such a manner as to contain a 3.8% solution of sodium citrate in an amount 1.10 time by volume as much as the blood. Then platelet-rich plasma (PRP) was prepared therefrom according to the method reported by Packham et al. (ct. Packham, M. A., et al, J. Exp. Med., 126, 171-189 (1967)). To 0.2 ml of the obtained PRP, 25 μl portions of solutions of each compound of the present invention (A to E) at various concentrations were added and incubated at 37° C. for three minutes. Then the aggultination of platelets was induced with arachidonic acid, collagen, ADP and PAF. The aggulutination of platelets was evaluated according to the method reported by Mustard et al. (cf. Mustard, J. F., et al., J. Lab. Clin. Med., 64, 548-559 […] with the use of an aggregometer available from Schenko or Niko Bioscience Co. In other words, this test is carried out to examine the effect of platelet aggregation (in vitro).
as §1

[3] = guinea pigs, oral, two hours after administration, arachidonic acid (50 μM), ex vivo, read-out: Effect of inhibiting arachidonic acid aggultination ED50
[4] = guinea pigs, oral, two hours after administration, collagen (3 μg/ml), ex vivo, read-out: Effect of inhibiting collagen aggultination ED50
[5] = ADP-induced, human PRP, incubated at 37° C. for three minutes, in vitro, read-out: Effect of inhibiting ADP aggultination IC50
[6] = PAF-induced, human PRP, incubated at 37° C. for three minutes, in vitro, read-out: Effect of inhibiting PAF aggultination IC50
[7] = arachidonic acid-induced, human PRP, incubated at 37° C. for three minutes, in vitro, read-out: Effect of inhibiting arachidonic acid aggultination IC50
[8] = collagen-induced, human PRP, incubated at 37° C. for three minutes, in vitro, read-out: Effect of inhibiting collagen aggultination IC50

Row | Compound | ED50 [1, 3] | ED50 [1, 4] | IC50 [2, 5] | IC50 [2, 6] | IC50 [2, 7] | IC50 [2, 8] | IC50 ([2]; Homo sapiens, read-out: Effect of inhibiting ADP aggultination IC50) | IC50 ([2]; Homo sapiens, read-out: Effect of inhibiting PAF aggultination IC50) | IC50 ([2]; Homo sapiens, read-out: Effect of inhibiting arachidonic acid aggultination IC50) | IC50 ([2]; Homo sapiens, read-out: Effect of inhibiting collagen aggultination IC50) | ED50 ([1]; po, read-out: Effect of inhibiting arachidonic acid aggultination ED50) | ED50 ([1]; po, read-out: Effect of inhibiting collagen aggultination ED50)
1 | Clc1ccccc1CN1CCc2sccc2C1 [Ticlopidine, reference compound] | 150 mg/kg | ≤ 200 mg/kg |  |  |  |  |  |  |  |  |  | 
2 | COc1ccc(C(=NOC(C#N)CCC(=O)O)c2ccc(OC)cc2)cc1 (centres unmarked) [Cpd. P, 4,4'-Dimethoxybenzophenone O-(1-cyano-3-carboxypropyl)oxime] | 0.3 mg/kg | 1.1 mg/kg | 2700 nM | 1500 nM | 400 nM | 1100 nM |  |  |  |  |  | 
3 | COC(=O)CCCC(C#N)ON=C(c1ccc(OC)cc1)c1ccc(OC)cc1 (centres unmarked) [Cpd. Q, 4,4'-Dimethoxybenzophenone O-(1-cyano-4-methoxycarbonylbutyl)oxime] | 50 mg/kg | 88 mg/kg | 35000 nM | 37000 nM | 12000 nM | 36000 nM |  |  |  |  |  | 
4 | CCOC(=O)CCC(C#N)ON=C(c1ccc(OC)cc1)c1ccc(OC)cc1 (centres unmarked) [Cpd. O, 4,4'Dimethoxybenzophenone O-(1-cyano-3-ethoxycarbonylpropyl)oxime] | 0.3 mg/kg | 1 mg/kg | 20000 nM | 14500 nM | 7000 nM | 14000 nM |  |  |  |  |  | 
5 | COc1ccc(C(=CC(=O)NCc2ccccc2)c2ccc(OC)cc2)cc1 [Cpd. A, N-Benzyl-3,3-bis(4-methoxyphenyl)acrylamide] | 100 mg/kg | 100 mg/kg | 5000 nM | 15000 nM | 5000 nM | 20000 nM |  |  |  |  |  | 
6 | COc1ccc(C(=C(C#N)CCC(=O)O)c2ccc(OC)cc2)cc1 [Cpd. D, 4-Cyano-5,5-bis(4-methoxyphenyl)4-pentenoic acid] |  |  |  |  |  |  | 1900 nM | 2800 nM | 800 nM | 1700 nM | 0.03 mg/kg | 0.05 mg/kg
7 | CCOC(=O)CC(CON=C(c1ccc(OC)cc1)c1ccc(OC)cc1)=NOC [Cpd. M, 4,4'-Dimethoxybenzophenone O-(3-ethoxycarbonyl-2-methoxyiminopropyl)oxime] | 55 mg/kg | 55 mg/kg | 13200 nM | 20000 nM | 12500 nM | 14000 nM |  |  |  |  |  | 
8 | CCOC(=O)CC(=O)CON=C(c1ccc(OC)cc1)c1ccc(OC)cc1 [Cpd. L, 4,4'-dimethoxybenzophenone-O-(3-ethoxycarbonyl-2-oxopropyl)oxime] | 30 mg/kg | 30 mg/kg | 800 nM | 1200 nM | 100 nM | 500 nM |  |  |  |  |  | 
9 | COc1ccc(C(=CCNS(=O)(=O)c2ccccc2)c2ccc(OC)cc2)cc1 [Cpd. B, N-[3,3-Bis(4-methoxyphenyl)allyl]benzensulfonamide] | 20 mg/kg | 20 mg/kg | 2000 nM | 2500 nM | 900 nM | 1400 nM |  |  |  |  |  | 
10 | COC(=O)CCCC(C#N)=C(c1ccc(OC)cc1)c1ccc(OC)cc1 [Cpd. E, Methyl 5-cyano-6,6-bis(4-methoxyphenyl)-5-hexenoate] | 0.3 mg/kg | 1 mg/kg | 200 nM | 1300 nM | 60 nM | 150 nM |  |  |  |  |  | 
11 | COc1ccc(C(=NOC(C#N)CCCC(=O)O)c2ccc(OC)cc2)cc1 (centres unmarked) [Cpd. R, 4,4'-Dimethoxybenzophenone O-(1-cyano-4-carboxybutyl)oxime] | ≤ 100 mg/kg | ≤ 100 mg/kg | 85000 nM | 79000 nM | 50000 nM | 80000 nM |  |  |  |  |  | 
12 | CCOC(=O)CCC(C#N)=C(c1ccc(OC)cc1)c1ccc(OC)cc1 [Cpd. C, Ethyl 4-cyano-5,5-bis(4-methoxyphenyl)-4-pentenoate] | 0.03 mg/kg | 0.05 mg/kg | 200 nM | 1800 nM | 70 nM | 200 nM |  |  |  |  |  | 
13 | CON=C(CON=C(c1ccc(OC)cc1)c1ccc(OC)cc1)CC(=O)O [Cpd. N, 4,4'-Dimethoxybenzophenone O-(3-carboxy-2-methoxyiminopropyl)oxime] | 0.3 mg/kg | 1.3 mg/kg | 5000 nM | 4100 nM | 700 nM | 2800 nM |  |  |  |  |  | 
